Experimental data reported in patent US20150148235A1, “HERBICIDE-RESISTANT SUNFLOWER PLANTS WITH MULTIPLE HERBICIDE RESISTANT ALLELES OF AHASL1 AND METHODS OF USE” (NIDERA S.A., priority 2013, published 2015).

Columns and labels:
[1] = system: sunflower hybrids and lines (A122T, A205V, A205V/A122T); test: Field trial North Dakota 2006, phytotoxicity ratings after imazamox or imazapyr, Example 3; format: in vivo, Helianthus annuus; details: for phytotoxicity: 200 g ai/ha
Method: • Spray volume: 10 gallons per acre (GPA) (or 100 liters/ha) for backpack sprayer or 20 GPA (or 200 liters/ha) for tractor mounted boom • Growth Stage at Herbicide Application: 2-4 leaves
Entry 15 (WT Maintainer line) was left unsprayed in all treatment blocks.
Phytotoxicity ratings were assessed at 7 and 21 days following herbicide application.
The data was subjected to an ANOVA analysis and the means from the 3 repetitions are presented in Table 7 (phytotoxicity at 7 days post-treatment) and Table 8 (phytotoxicity at 21 days post-treatment).

[2] = system: AHAS enzyme, A205V Homozygous sunflower; test: AHAS enzyme activity assay, leaf extract; format: biochemical, Helianthus annuus
Method: (§1) Twelve greenhouse grown sunflower plants from each of the lines depicted in Table 21 were bulked and subjected to an AHAS enzyme activity assay via the method of Singh et al. (1988) Anal. Biochem. 171:173-179. Each activity assay was repeated twice. Due to the large number of samples, the experiment was split into two sets (Table 21).
(§2) Young, actively growing leaves, from four week old plantlets, were ground in a mortar and pestle with liquid N2 and extracted with a buffer composed of 100 mM Pyruvate, 200 mM KH2PO4, 20 mM MgCl2, 2 mM thiamine pyrophosphate and […]. Plant extracts were then spun through a 10 mL Zeba TM desalt spin column (Pierce #89893) as per the manufacturer's recommendation. The inhibition assay was performed as described by Singh et al. (1988) Anal. Biochem. 171:173-179. Assays were conducted in a 96-well format. Fifty μl of inhibitor was added to each well containing 50 μl of soluble protein extract to give final concentrations of 0.78, 1.56, 3.125, 6.25, 12.5, 25, 50 and 100 μM imazamox or 0.78, 1.56, 3.125, 6.25, 12.5, 25, 50 and 100 μM imazapyr. Zero herbicide controls were also included for each line. Reactions were processed as outlined by Singh et al. (1988) Anal. Biochem. 171:173-179. Absorbance was measured at 530 nm. AHAS activity, expressed as the mean of the absorbance values for each treatment, was presented as a percentage of the mean of the zero-herbicide controls.

[3] = system: AHAS enzyme, A122T/A205V Heterozygous sunflower; test: AHAS enzyme activity assay, leaf extract; format: biochemical, Helianthus annuus; details: A122T/A205V heterozygous hybrid (Set 1); 100 μM
Method: as §1, §2

[4] = system: AHAS enzyme, A122T Homozygous sunflower; test: AHAS enzyme activity assay, leaf extract; format: biochemical, Helianthus annuus
Method: as §1, §2

## COCc1cnc(C2=NC(C)(C(C)C)C(=O)N2)c(C(=O)O)c1 (centres unmarked) [imazamox]
[1]; 10-hybrid (IMI CMS × GM40 restorer, A205/A122 hetero/double), 200 g ai/ha + 0.25% NIS, 21 DAT
  Phytotoxicity Rating (% Crop Injury): 1.7%
[1]; 11-hybrid (GM40 CMS × IMI restorer, A205/A122 hetero/double), 50 g ai/ha + 0.25% NIS, 7 DAT
  Phytotoxicity Rating (% Crop Injury): 0.0%
[1]; 11-hybrid (GM40 CMS × IMI restorer, A205/A122 hetero/double), 50 g ai/ha + 0.25% NIS, 21 DAT
  Phytotoxicity Rating (% Crop Injury): 0.0%
[1]; 11-hybrid (GM40 CMS × IMI restorer, A205/A122 hetero/double), 100 g ai/ha + 0.25% NIS, 7 DAT
  Phytotoxicity Rating (% Crop Injury): 3.3%
[1]; 11-hybrid (GM40 CMS × IMI restorer, A205/A122 hetero/double), 100 g ai/ha + 0.25% NIS, 21 DAT
  Phytotoxicity Rating (% Crop Injury): 0.0%
[1]; 11-hybrid (GM40 CMS × IMI restorer, A205/A122 hetero/double), 200 g ai/ha + 0.25% NIS, 7 DAT
  Phytotoxicity Rating (% Crop Injury): 11.7%
[1]; 11-hybrid (GM40 CMS × IMI restorer, A205/A122 hetero/double), 200 g ai/ha + 0.25% NIS, 21 DAT
  Phytotoxicity Rating (% Crop Injury): 3.3%
[1]; 12-hybrid (IMI CMS × GM40 restorer, A205/A122 hetero/double), 50 g ai/ha + 0.25% NIS, 7 DAT
  Phytotoxicity Rating (% Crop Injury): 10.0%
[1]; 12-hybrid (IMI CMS × GM40 restorer, A205/A122 hetero/double), 50 g ai/ha + 0.25% NIS, 21 DAT
  Phytotoxicity Rating (% Crop Injury): 3.3%
[1]; 12-hybrid (IMI CMS × GM40 restorer, A205/A122 hetero/double), 100 g ai/ha + 0.25% NIS, 7 DAT
  Phytotoxicity Rating (% Crop Injury): 10.0%
[1]; 12-hybrid (IMI CMS × GM40 restorer, A205/A122 hetero/double), 100 g ai/ha + 0.25% NIS, 21 DAT
  Phytotoxicity Rating (% Crop Injury): 3.3%
[1]; 12-hybrid (IMI CMS × GM40 restorer, A205/A122 hetero/double), 200 g ai/ha + 0.25% NIS, 7 DAT
  Phytotoxicity Rating (% Crop Injury): 11.7%
[1]; 12-hybrid (IMI CMS × GM40 restorer, A205/A122 hetero/double), 200 g ai/ha + 0.25% NIS, 21 DAT
  Phytotoxicity Rating (% Crop Injury): 3.3%
[1]; 13-hybrid (GM40 CMS × GM40 restorer, A122 homo), 50 g ai/ha + 0.25% NIS, 7 DAT
  Phytotoxicity Rating (% Crop Injury): 3.3%
[1]; 13-hybrid (GM40 CMS × GM40 restorer, A122 homo), 50 g ai/ha + 0.25% NIS, 21 DAT
  Phytotoxicity Rating (% Crop Injury): 0.0%
[1]; 13-hybrid (GM40 CMS × GM40 restorer, A122 homo), 100 g ai/ha + 0.25% NIS, 7 DAT
  Phytotoxicity Rating (% Crop Injury): 5.0%
[1]; 13-hybrid (GM40 CMS × GM40 restorer, A122 homo), 100 g ai/ha + 0.25% NIS, 21 DAT
  Phytotoxicity Rating (% Crop Injury): 1.7%
[1]; 13-hybrid (GM40 CMS × GM40 restorer, A122 homo), 200 g ai/ha + 0.25% NIS, 7 DAT
  Phytotoxicity Rating (% Crop Injury): 10.0%
[1]; 13-hybrid (GM40 CMS × GM40 restorer, A122 homo), 200 g ai/ha + 0.25% NIS, 21 DAT
  Phytotoxicity Rating (% Crop Injury): 3.3%
[1]; 14-hybrid (GM40 CMS × GM40 restorer, A122 homo), 50 g ai/ha + 0.25% NIS, 7 DAT
  Phytotoxicity Rating (% Crop Injury): 5.0%
[1]; 14-hybrid (GM40 CMS × GM40 restorer, A122 homo), 50 g ai/ha + 0.25% NIS, 21 DAT
  Phytotoxicity Rating (% Crop Injury): 0.0%
[1]; 14-hybrid (GM40 CMS × GM40 restorer, A122 homo), 100 g ai/ha + 0.25% NIS, 7 DAT
  Phytotoxicity Rating (% Crop Injury): 6.7%
[1]; 14-hybrid (GM40 CMS × GM40 restorer, A122 homo), 100 g ai/ha + 0.25% NIS, 21 DAT
  Phytotoxicity Rating (% Crop Injury): 3.3%
[1]; 14-hybrid (GM40 CMS × GM40 restorer, A122 homo), 200 g ai/ha + 0.25% NIS, 7 DAT
  Phytotoxicity Rating (% Crop Injury): 11.7%
[1]; 14-hybrid (GM40 CMS × GM40 restorer, A122 homo), 200 g ai/ha + 0.25% NIS, 21 DAT
  Phytotoxicity Rating (% Crop Injury): 5.0%
[1]; 15-hybrid (WT × GM40 restorer, A122 hetero), 50 g ai/ha + 0.25% NIS, 7 DAT
  Phytotoxicity Rating (% Crop Injury): 10.0%
[1]; 15-hybrid (WT × GM40 restorer, A122 hetero), 50 g ai/ha + 0.25% NIS, 21 DAT
  Phytotoxicity Rating (% Crop Injury): 6.7%
[1]; 15-hybrid (WT × GM40 restorer, A122 hetero), 100 g ai/ha + 0.25% NIS, 7 DAT
  Phytotoxicity Rating (% Crop Injury): 11.7%
[1]; 15-hybrid (WT × GM40 restorer, A122 hetero), 100 g ai/ha + 0.25% NIS, 21 DAT
  Phytotoxicity Rating (% Crop Injury): 11.7%
[1]; 15-hybrid (WT × GM40 restorer, A122 hetero), 200 g ai/ha + 0.25% NIS, 7 DAT
  Phytotoxicity Rating (% Crop Injury): 16.7%
[1]; 15-hybrid (WT × GM40 restorer, A122 hetero), 200 g ai/ha + 0.25% NIS, 21 DAT
  Phytotoxicity Rating (% Crop Injury): 30.0%
[1]; 16-hybrid (WT × GM40 restorer, A122 hetero), 50 g ai/ha + 0.25% NIS, 7 DAT
  Phytotoxicity Rating (% Crop Injury): 10.0%
[1]; 16-hybrid (WT × GM40 restorer, A122 hetero), 50 g ai/ha + 0.25% NIS, 21 DAT
  Phytotoxicity Rating (% Crop Injury): 6.7%
[1]; 16-hybrid (WT × GM40 restorer, A122 hetero), 100 g ai/ha + 0.25% NIS, 7 DAT
  Phytotoxicity Rating (% Crop Injury): 15.0%
[1]; 16-hybrid (WT × GM40 restorer, A122 hetero), 100 g ai/ha + 0.25% NIS, 21 DAT
  Phytotoxicity Rating (% Crop Injury): 16.7%
[1]; 16-hybrid (WT × GM40 restorer, A122 hetero), 200 g ai/ha + 0.25% NIS, 7 DAT
  Phytotoxicity Rating (% Crop Injury): 23.3%
[1]; 16-hybrid (WT × GM40 restorer, A122 hetero), 200 g ai/ha + 0.25% NIS, 21 DAT
  Phytotoxicity Rating (% Crop Injury): 31.7%
[1]; heterozygous A205V/A122T lines, 21 DAT
  phytotoxicity: 2-3%
[1]; homozygous A122T/A122T lines, 21 DAT
  phytotoxicity: 3-5%
[1]; homozygous A205V/A205V lines, 21 DAT
  phytotoxicity: 15-22%
[2]; A205V homozygous (Set 2), 50 μM
  AHAS activity: 30%
[2]; A205V homozygous (Set 2), 100 μM
  AHAS activity: 26%
[2]; A205V homozygous hybrid (Set 1), 100 μM
  AHAS activity: 36 % of untreated control
[3]
  AHAS activity: 59%
[4]; A122T homozygous (Set 2), 50 μM
  AHAS activity: 63 % relative to the untreated co
[4]; A122T homozygous (Set 2), 100 μM
  AHAS activity: 60 % relative to the untreated co
[4]; A122T homozygous hybrid (Set 1), 100 μM
  AHAS activity: 69 % of untreated control
